Experimental data from patent US8232448B2, “Transgenic mouse with a homozygous mutation in the CMAH gene” (The Regents of the University of California, priority 2005, dated 2012).

Tests used:
[1] = tested on: normal human skin fibroblasts; test: Neu5Gc/ManNGc feeding experiment, normal (WT) fibroblasts, DMB-HPLC; format: cell-based; conditions: for percent of Neu5Gc in membrane-bound glycoconjugates: normal wild-type (WT) fibroblasts, fed 3 mM for 3 days
Procedure: (§1) Neu5Gc and ManNGc Feeding Experiment—Neu5Ac, Neu5Gc or ManNGc were dried, dissolved in the appropriate media supplemented with heat-inactivated human serum, sterilized using a Spin-X® (Corning Inc., Corning, N.Y.) and then added to the cells. The pH of the media containing Sia was adjusted to neutrality using sterilized 1M NaOH before starting the feeding experiment. Cells were cultured in the presence of up to 3 mM free Sia or ManNGc for 1 or 3 days at 37° C. At the end of the feeding, cells were washed with cold PBS, harvested either by scraping or with 2 mM EDTA for fibroblasts, and washed again with cold PBS prior to fractionation.
Fractionation of the Labeled Cells—Washed cell pellets were sonicated into 500 μL of 20 mM sodium phosphate buffer or 20 mM Tris-HCl, pH 7.5, using 4×15 second pulses of a sonicator cell disrupter, model Some Dismembrator (Fisher Scientific, Hampton, N.J.) at a probe setting of 3. The sonicate was centrifuged at 75×g for 15 min., and the pellet Obtained consisted primarily of nuclei and unbroken cells. The pellet contained <5% of the incorporated sialic acid as determined using a radioactive tracer (data not shown.) The supernatant was therefore considered as the “total homogenate” fraction. A portion (20%) of the “total homogenate” fraction was taken for protein quantification and Sia analysis by DMB derivatization and HPLC analysis (as discussed below.) The remainder was centrifuged at 100,000×g for 1 h. The resulting pellet, called the “membrane” fraction, was then resuspended by sonication (15 sec.) in 200 μl of sodium acetate buffer, pH 5.5. The 100,000×g supernatant, called the “soluble” fraction was adjusted to 90% ethanol using absolute ice-cold ethanol, and placed overnight at −20° C. The flocculant precipitate, which represents the “soluble protein” fraction, was washed 3 times with 90%® ice-cold ethanol and then resuspended in 200 μl of water. The supernatant fluid representing the cytosolic low molecular weight (LMW) fraction was dried and brought up in 100 μL with water prior to Sia analysis. All the Sias in these fractions were released with mild acid hydrolysis if necessary and then analyzed by HPLC after DMB derivatization. Protein quantification was performed on the total homogenate, membrane and soluble protein fractions by using the BCA protein assay kit from Pierce (Rockford, Ill.) In some experiments, the resulting data obtained for the Sia bound to the membrane fraction and to the soluble proteins were pooled and presented here as a High Molecular Weight (HMW) fraction.
Sialic Acid Release, DMB Derivatization and HPLC Analysis—The bound Sias from the total homogenate, membrane and soluble protein fractions were released using 2M acetic acid hydrolysis, 3 h. at 80° C. The released Sias, or free Sias, contained in the soluble LMW fraction were passed through a Microcon® YM-10 filter (Millipore, Bedford, Mass.) prior to DMB derivatization, which was done according to Hara et al., 1989. DMB-Sia derivatives from the different fractions were then analyzed by HPLC using a C18 column (Microsorb MV-TM 100 A, Varian, Palo Alto, Calif.) Isocratic elution was achieved using 7% methanol, 8% acetonitrile in water during 50 min. at 0.9 ml/min flow. The eluant was monitored by fluorescence.
Quantification of Sias—For all HPLC chromatograms, the quantification of Sias was done by comparison with known quantities of DMB derivatized Neu5Gc and Neu5Ac used as standards and then reported in terms of pmoles of Sia. […]

Caco-2 cells [2] = test: Endocytosis inhibition experiments (Neu5Gc incorporation); format: cell-based, human; conditions: Caco-2, 2 h pre-treatment with drug, then 3 mM Neu5Gc
Procedure: The sonicate was centrifuged at 75×g for 15 min., and the pellet Obtained consisted primarily of nuclei and unbroken cells. […] A portion (20%) of the “total homogenate” fraction was taken for protein quantification and Sia analysis by DMB derivatization and HPLC analysis (as discussed below.) The remainder was centrifuged at 100,000×g for 1 h. The resulting pellet, called the “membrane” fraction, was then resuspended by sonication (15 sec.) in 200 μl of sodium acetate buffer, pH 5.5. The 100,000×g supernatant, called the “soluble” fraction was adjusted to 90% ethanol using absolute ice-cold ethanol, and placed overnight at −20° C. The flocculant precipitate, which represents the “soluble protein” fraction, was washed 3 times with 90%® ice-cold ethanol and then resuspended in 200 μl of water. The supernatant fluid representing the cytosolic low molecular weight (LMW) fraction was dried and brought up in 100 μL with water prior to Sia analysis. All the Sias in these fractions were released with mild acid hydrolysis if necessary and then analyzed by HPLC after DMB derivatization. Protein quantification was performed on the total homogenate, membrane and soluble protein fractions by using the BCA protein assay kit from Pierce (Rockford, Ill.) In some experiments, the resulting data obtained for the Sia bound to the membrane fraction and to the soluble proteins were pooled and presented here as a High Molecular Weight (HMW) fraction. Sialic Acid Release, DMB Derivatization and HPLC Analysis—The bound Sias from the total homogenate, membrane and soluble protein fractions were released using 2M acetic acid hydrolysis, 3 h. at 80° C. The released Sias, or free Sias, contained in the soluble LMW fraction were passed through a Microcon® YM-10 filter (Millipore, Bedford, Mass.) prior to DMB derivatization, which was done according to Hara et al., 1989. […] The eluant was monitored by fluorescence. Quantification of Sias—For all HPLC chromatograms, the quantification of Sias was done by comparison with known quantities of DMB derivatized Neu5Gc and Neu5Ac used as standards and then reported in terms of pmoles of Sia. For total homogenate, membrane and cytosolic protein fractions, this number was expressed per mg of protein. Due to minor sample-to-sample variations in amounts and recoveries, the data in the Figures is presented as percent of Neu5Gc over total Sias, rather than as absolute amounts. Endocytosis Inhibition Experiments—Caco-2 or normal fibroblast cells were split and cultured in alpha-MEM media supplemented respectively with 20% or 15% human serum for 4 days before starting the endocytosis drug inhibition experiments in order to deplete any Neu5Gc derived from FCS. Cells were then pre-treated for 2 h. with the specific inhibitors under the same culture conditions. Fresh media containing the same amount of inhibitor and 3 mM of Neu5Gc was then added to the cells, which were incubated for 16 h or 3 days and finally harvested and fractionated as described above.

[3] = tested on: human LB EBV-transformed lymphoblasts; test: Neu5Gc/Neu5Ac feeding experiment, human lymphoblasts; format: cell-based
Procedure: Cell Culture—Caco-2 cells were propagated in alpha-MEM containing GLUTAMAX™ (Invitrogen, San Diego, Calif.) and a mixture of ribonucleosides and deoxyribonucleosides (Gibco/Invitrogen, San Diego, Calif.) supplemented with 20% FCS. All the fibroblast cell lines and CHO-K1 cells were cultured in the same media supplemented respectively with 15% non-heat inactivated FCS or 10% heat inactivated FCS. Chimpanzee Fred and human LB EBV-transformed lymphoblasts were cultured in RPMI-1640 (Gibco/Invitrogen, San Diego, Calif.) supplemented with 10% heat inactivated FCS or 15% human serum. All of the cultures were maintained at 37° C., 5% CO2 atmosphere. In order to deplete any remaining Neu5Gc from FCS, the cells were split and cultured prior to Neu5Gc feeding experiments for at least 4 days in alpha-MEM supplemented with an adequate percentage of heat-inactivated premium human serum instead of FCS. The cells were then maintained under the same conditions during the whole feeding experiment. The human serum was heat inactivated at 56° C. for 30 min. before use.
as §1, with “At the end of the feeding, cells were washed with cold PBS, harvested either by scraping or with 2 mM EDTA for fibroblasts, and washed again with cold PBS prior to fractionation.” left out
Fractionation of the Labeled Cells—Washed cell pellets were sonicated into 500 μL of 20 mM sodium phosphate buffer or 20 mM Tris-HCl, pH 7.5, using 4×15 second pulses of a sonicator cell disrupter, model Some Dismembrator (Fisher Scientific, Hampton, N.J.) at a probe setting of 3. […] The pellet contained <5% of the incorporated sialic acid as determined using a radioactive tracer (data not shown.) The supernatant was therefore considered as the “total homogenate” fraction. A portion (20%) of the “total homogenate” fraction was taken for protein quantification and Sia analysis by DMB derivatization and HPLC analysis (as discussed below.) The remainder was centrifuged at 100,000×g for 1 h. […] All the Sias in these fractions were released with mild acid hydrolysis if necessary and then analyzed by HPLC after DMB derivatization. Protein quantification was performed on the total homogenate, membrane and soluble protein fractions by using the BCA protein assay kit from Pierce (Rockford, Ill.) In some experiments, the resulting data obtained for the Sia bound to the membrane fraction and to the soluble proteins were pooled and presented here as a High Molecular Weight (HMW) fraction. […]

Caco-2 cells [4] = test: Competition of free Neu5Ac with free Neu5Gc for incorporation; format: cell-based, human; conditions: Caco-2, 3 mM Neu5Gc 3 days, in the presence of 15 mM Neu5Ac
Procedure: as §1, with “Cells were cultured in the presence of up to 3 mM free Sia or ManNGc for 1 or 3 days at 37° C.” left out
Fractionation of the Labeled Cells—Washed cell pellets were sonicated into 500 μL of 20 mM sodium phosphate buffer or 20 mM Tris-HCl, pH 7.5, using 4×15 second pulses of a sonicator cell disrupter, model Some Dismembrator (Fisher Scientific, Hampton, N.J.) at a probe setting of 3. […] The pellet contained <5% of the incorporated sialic acid as determined using a radioactive tracer (data not shown.) The supernatant was therefore considered as the “total homogenate” fraction. A portion (20%) of the “total homogenate” fraction was taken for protein quantification and Sia analysis by DMB derivatization and HPLC analysis (as discussed below.) The remainder was centrifuged at 100,000×g for 1 h. […] All the Sias in these fractions were released with mild acid hydrolysis if necessary and then analyzed by HPLC after DMB derivatization. […]

Caco-2 cells [5] = test: Neu5Gc feeding experiment, Neu5Gc in subcellular fractions by DMB-HPLC; format: cell-based, human; conditions: fed 3 mM for 3 days
Procedure: as §1
Fractionation of the Labeled Cells—Washed cell pellets were sonicated into 500 μL of 20 mM sodium phosphate buffer or 20 mM Tris-HCl, pH 7.5, using 4×15 second pulses of a sonicator cell disrupter, model Some Dismembrator (Fisher Scientific, Hampton, N.J.) at a probe setting of 3. The sonicate was centrifuged at 75×g for 15 min., and the pellet Obtained consisted primarily of nuclei and unbroken cells. The pellet contained <5% of the incorporated sialic acid as determined using a radioactive tracer (data not shown.) The supernatant was therefore considered as the “total homogenate” fraction. A portion (20%) of the “total homogenate” fraction was taken for protein quantification and Sia analysis by DMB derivatization and HPLC analysis (as discussed below.) The remainder was centrifuged at 100,000×g for 1 h. The resulting pellet, called the “membrane” fraction, was then resuspended by sonication (15 sec.) in 200 μl of sodium acetate buffer, pH 5.5. […] All the Sias in these fractions were released with mild acid hydrolysis if necessary and then analyzed by HPLC after DMB derivatization. Protein quantification was performed on the total homogenate, membrane and soluble protein fractions by using the BCA protein assay kit from Pierce (Rockford, Ill.) In some experiments, the resulting data obtained for the Sia bound to the membrane fraction and to the soluble proteins were pooled and presented here as a High Molecular Weight (HMW) fraction. […]

[6] = tested on: Human neuroblastoma cells; test: Neu5Gc feeding experiment, neuroblastoma cells; format: cell-based; conditions: fed 3 mM for 3 days
Procedure: as §1
Fractionation of the Labeled Cells—Washed cell pellets were sonicated into 500 μL of 20 mM sodium phosphate buffer or 20 mM Tris-HCl, pH 7.5, using 4×15 second pulses of a sonicator cell disrupter, model Some Dismembrator (Fisher Scientific, Hampton, N.J.) at a probe setting of 3. […] The pellet contained <5% of the incorporated sialic acid as determined using a radioactive tracer (data not shown.) The supernatant was therefore considered as the “total homogenate” fraction. A portion (20%) of the “total homogenate” fraction was taken for protein quantification and Sia analysis by DMB derivatization and HPLC analysis (as discussed below.) The remainder was centrifuged at 100,000×g for 1 h. […]

chimpanzee lymphoblasts = test: Neu5Gc/Neu5Ac feeding experiment, chimpanzee lymphoblasts; format: cell-based; conditions: chimpanzee lymphoblasts fed 3 mM for 3 days
[7] = human normal fibroblasts after 3 mM Neu5Gc feeding, 3 days
[8] = human lymphoblasts fed 3 mM for 3 days

## O=C(CO)N[C@@H]1C(O)O[C@H](CO)[C@@H](O)[C@@H]1O (some centres unmarked) [ManNGc, N-glycolylmannosamine]
[1]
  percent of Neu5Gc in membrane-bound glycoconjugates: 19%

## C[C@@H]1[C@H](O)[C@@H](C)/C=C/C=C/CC/C=C/C=C/C=C/C=C/C(O[C@H]2O[C@H](C)[C@@H](O)[C@H](N)[C@@H]2O)CC2O[C@](O)(CC(O)C(O)CCC(O)CC(O)CC(O)CC(=O)O[C@H]1C)CC(O)C2C(=O)O (some centres unmarked) [nystatin]
Caco-2 cells [2]
  Neu5Gc incorporation into membrane-bound glycoconjugates in the presence of inhibitor: 44%
  incorporation of Neu5Gc in the TH fraction in the presence of inhibitor: ~65%

## O=c1c(-c2ccc(O)cc2)coc2cc(O)cc(O)c12 [genistein]
Caco-2 cells [2]
  Neu5Gc incorporation into membrane-bound glycoconjugates in the presence of inhibitor: 34%
  incorporation of Neu5Gc in the TH fraction in the presence of inhibitor: 51%

## CC(=O)N[C@H]1[C@H]([C@H](O)[C@H](O)CO)OC(O)(C(=O)O)C[C@@H]1O (some centres unmarked) [Neu5Ac, N-acetylneuraminic acid]
[3]; human lymphoblasts fed 3 mM Neu5Ac for 3 days
  Neu5Gc detected in the cells: almost no detectable Neu5Gc
Caco-2 cells [4]
  Neu5Gc (percent of total Sia) in the membrane-bound fraction: almost to zero

## CN(C)CCCN1c2ccccc2Sc2ccc(Cl)cc21 [chlorpromazine]
Caco-2 cells [2]
  Neu5Gc incorporation into membrane-bound glycoconjugates in the presence of inhibitor: 50%

## O=C(CO)N[C@H]1[C@H]([C@H](O)[C@H](O)CO)OC(O)(C(=O)O)C[C@@H]1O (some centres unmarked) [Neu5Gc, N-glycolylneuraminic acid]
Caco-2 cells [5]
  Neu5Gc (percent of total Sia), cytosolic low molecular weight (LMW) fraction: 70%
  Neu5Gc (percent of total Sia), high molecular weight fraction (HMW): 46%
  Neu5Gc (percent of total Sia), total homogenate (TH): 58%
[1]; [7]
  Neu5Gc (percent of total Sia), HMW fraction: 39%
  Neu5Gc (percent of total Sia), TH fraction: 28%
  Neu5Gc (percent of total Sia), cytosolic LMW fraction: 41%
[1]
  percent of Neu5Gc in membrane-bound glycoconjugates: 37%
[6]
  Neu5Gc incorporation efficiency: efficiency comparable to the Caco-2 cells
[3]; [8]
  Neu5Gc (percent of total Sia), HMW fraction: 51%
  Neu5Gc (percent of total Sia), LMW cytosolic fraction: 80%
  Neu5Gc (percent of total Sia), TH fraction: 67%
Chimpanzee lymphoblasts; non-fed baseline 57%
  Neu5Gc (percent of total Sia), TH fraction: 70%
Chimpanzee lymphoblasts; non-fed baseline 66%
  Neu5Gc (percent of total Sia), HMW fraction: 72%
Chimpanzee lymphoblasts; non-fed baseline 70%
  Neu5Gc (percent of total Sia), LMW fraction: 84%

## N=C(N)NC(=O)c1nc(Cl)c(N)nc1N [amiloride]
Caco-2 cells [2]
  Neu5Gc incorporation into membrane-bound glycoconjugates in the presence of inhibitor: 10%
